Values joined by “and” are separate entries in the source; they are usually repeats but may differ in a detail not shown here. Identical values can stand only once. Inconclusive results and toxic doses are left out.
Test system: BDF1 mice, P388 leukemia ip, median survival T/C
Test: NCI In Vivo Anticancer Drug Screen. Data for tumor model P388 Leukemia (intraperitoneal) in B6D2F1 (BDF1) mice
Settings: endpoint: median survival time, higher = longer survival
Outline: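 Survival ratio, drug arm over vehicle arm, in mice with a transplanted tumour.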

[1] = dose: 100.0 mg/kg/injection, schedule: Q04DX003 (ip), vehicle: saline with Tween-80
[2] = dose: 200.0 mg/kg/injection, schedule: Q04DX003 (ip), vehicle: saline with Tween-80
[3] = dose: 50.0 mg/kg/injection, schedule: Q01DX009 (ip), vehicle: saline
[4] = dose: 100.0 mg/kg/injection, schedule: Q01DX009 (ip), vehicle: saline
[5] = dose: 200.0 mg/kg/injection, schedule: Q01DX009 (ip), vehicle: saline
[6] = dose: 200.0 mg/kg/injection, schedule: Q04DX003 (ip), vehicle: Klucel (hydroxypropylcellulose) (HPC)

Compound: CN(N)c1ccccc1
- T/C (dose: 6.25 mg/kg/injection, schedule: Q04DX003 (ip), vehicle: saline with Tween-80): 93 % of control
- T/C (dose: 12.5 mg/kg/injection, schedule: Q04DX003 (ip), vehicle: saline with Tween-80): 95 % of control
- T/C (dose: 25.0 mg/kg/injection, schedule: Q04DX003 (ip), vehicle: saline with Tween-80): 90 % of control
- T/C (dose: 50.0 mg/kg/injection, schedule: Q04DX003 (ip), vehicle: saline with Tween-80): 104 % of control and 105 % of control
- T/C [1]: 113 % of control
- T/C [2]: 123 % of control

Compound: N#CCCNCCC#N
- T/C [3]: 91 % of control
- T/C [4]: 108 % of control
- T/C (dose: 100.0 mg/kg/injection, schedule: Q04DX003 (ip), vehicle: saline): 105 % of control
- T/C [5]: 104 % of control
- T/C (dose: 200.0 mg/kg/injection, schedule: Q04DX003 (ip), vehicle: saline): 105 % of control

Compound: O=C1/C(=C\c2ccccc2)C(Br)c2ccccc21 (stereo unspecified)
- T/C (dose: 1.56 mg/kg/injection, schedule: Q01DX009 (ip), vehicle: water): 87 % of control
- T/C (dose: 3.12 mg/kg/injection, schedule: Q01DX009 (ip), vehicle: water): 108 % of control
- T/C (dose: 6.25 mg/kg/injection, schedule: Q01DX009 (ip), vehicle: water): 108 % of control
- T/C (dose: 6.25 mg/kg/injection, schedule: Q04DX003 (ip), vehicle: water): 100 % of control
- T/C (dose: 12.5 mg/kg/injection, schedule: Q01DX009 (ip), vehicle: water): 110 % of control
- T/C (dose: 12.5 mg/kg/injection, schedule: Q04DX003 (ip), vehicle: water): 105 % of control
- T/C (dose: 25.0 mg/kg/injection, schedule: Q01DX009 (ip), vehicle: water): 110 % of control
- T/C (dose: 25.0 mg/kg/injection, schedule: Q04DX003 (ip), vehicle: water): 105 % of control
- T/C (dose: 50.0 mg/kg/injection, schedule: Q04DX003 (ip), vehicle: water): 91 % of control

Compound: C[C@H](N)C(=O)N[C@@H]1[C@H]2C(=C(O)C[C@@H](O)[C@@H]2O)C(=O)O[C@@H]1C
- T/C (dose: 100.0 mg/kg/injection, schedule: Q01DX010 (ip), vehicle: saline): 162 % of control
- T/C (dose: 133.0 mg/kg/injection, schedule: Q04DX003 (ip), vehicle: saline): 112 % of control
- T/C (dose: 266.0 mg/kg/injection, schedule: Q04DX003 (ip), vehicle: saline): 119 % of control
- T/C (dose: 400.0 mg/kg/injection, schedule: Q01DX010 (ip), vehicle: saline): 162 % of control
- T/C (dose: 532.0 mg/kg/injection, schedule: Q04DX003 (ip), vehicle: saline): 120 % of control
- T/C (dose: 800.0 mg/kg/injection, schedule: Q01DX010 (ip), vehicle: saline): 175 % of control
- T/C (dose: 2428.0 mg/kg/injection, schedule: Q04DX003 (ip), vehicle: saline): 166 % of control

Compound: O=c1[nH]c(SCc2ccc([N+](=O)[O-])cc2)nc2ccccc12
- T/C (dose: 100.0 mg/kg/injection, schedule: Q04DX003 (ip), vehicle: Klucel (hydroxypropylcellulose) (HPC)): 95 % of control
- T/C [6]: 90 % of control

Compound: OCCCC1CCCCC1
- T/C [3]: 111 % of control
- T/C [4]: 113 % of control
- T/C [5]: 117 % of control

Compound: O=C1c2ccccc2C(=O)N1C/C(=N/O)c1ccc(C(F)(F)F)cc1
- T/C (dose: 50.0 mg/kg/injection, schedule: Q01DX001 (ip), vehicle: Klucel (hydroxypropylcellulose) (HPC)): 96 % of control
- T/C (dose: 100.0 mg/kg/injection, schedule: Q01DX001 (ip), vehicle: Klucel (hydroxypropylcellulose) (HPC)): 96 % of control
- T/C (dose: 200.0 mg/kg/injection, schedule: Q01DX001 (ip), vehicle: Klucel (hydroxypropylcellulose) (HPC)): 96 % of control

Compound: O=[N+]([O-])c1ccc(NS(=O)(=O)c2cccs2)c([N+](=O)[O-])c1
- T/C (dose: 50.0 mg/kg/injection, schedule: Q01DX009 (ip), vehicle: saline with Tween-80): 96 % of control

Compound: COc1cccc(CCCC(=O)O)c1
- T/C [6]: 95 % of control
- T/C (dose: 400.0 mg/kg/injection, schedule: Q04DX003 (ip), vehicle: Klucel (hydroxypropylcellulose) (HPC)): 87 % of control

Compound: CC(C)(C)N(O)N=O.CC(C)(C)N(O)N=O.[Cu]
- T/C (dose: 1.56 mg/kg/injection, schedule: Q01DX001 (ip), vehicle: saline): 107 % of control
- T/C (dose: 3.13 mg/kg/injection, schedule: Q01DX001 (ip), vehicle: saline): 109 % of control
- T/C (dose: 6.25 mg/kg/injection, schedule: Q01DX001 (ip), vehicle: saline): 106 % of control

Compound: CC1=CCCC(C)C12CCC(C(C)(C)O)C2 (stereo unspecified)
- T/C (dose: 100.0 mg/kg/injection, schedule: Q01DX009 (ip), vehicle: saline with Tween-80): 92 % of control
- T/C [1]: 100 % of control
- T/C (dose: 200.0 mg/kg/injection, schedule: Q01DX009 (ip), vehicle: saline with Tween-80): 92 % of control
- T/C [2]: 113 % of control
- T/C (dose: 400.0 mg/kg/injection, schedule: Q04DX003 (ip), vehicle: saline with Tween-80): 118 % of control

Reference: PubChem BioAssay AID328 (DTP/NCI, 2004)
